In patent publication US8691864B2, “Agents useful for reducing amyloid precursor protein and treating dementia and methods of use thereof” (priority 2000, dated 2014):

What was measured:
SH-SY-5Y Cells = experiment: MTS toxicity assay in SHSY5Y cells; type: cell-based, human
Procedure: (§1) An enzyme-linked immunosorbent assay was developed to detect secreted APP in SHSY5Y cells, a human neuroblastoma cell line. The purpose of the screen was to discover small molecules that inhibit APP protein synthesis in SHSY5Y cells. SHSY5Y cells were plated at 1×10^5 cells/well in […] of DMEM containing 0.5% heat inactivated FBS in 96 well tissue culture treated plates (Falcon no. 35 3072). 144 MES compounds were tested at final concentrations of […] in 0.1% DMSO. Compounds were added and the plates incubated for 16 hours at 37° C./5% CO2. Maxisorp plates (Nunc no. 437958) were coated overnight with […] capture antibody (Biosource 44-100) diluted in Ca^++ and Mg^++ free PBS. Biosource 44-100 is a mouse mAb that recognizes aa 1-100 of human APP. Plates were blocked for 30 minutes with 1 mg/mL BSA in Ca^++ and Mg^++ free PBS. Plates were washed 3× with wash buffer (Ca^++ and Mg^++ free PBS+0.01% Tween20). […] of supernatants and non-cultured medium controls were transferred from culture plates to ELISA plates. Culture plates were reserved for toxicity analysis. Supernatants were incubated for 4 hours at RT on a plate shaker. After supernatant incubation, plates were washed 3×. Primary antibody (Signet Clone 6E-10 biotin) was added at 0.3125 mg/mL and incubated overnight at 4° C. The recognition site of 6E-10 is aa 1-17 of Ab. For detection, a 1:3000 dilution of horseradish peroxidase conjugated streptavidin (Endogen no. N-100) was incubated for 30 minutes. Plates were washed 3×. Enzyme activity was assessed by incubation with […] TMB substrate solution (Moss no. TMB-US) for 20 minutes. The reaction was stopped by the addition of […] 0.18M sulfuric acid. Optical density was read at 450 nm on Wallac Victor2 plate reader. During the first incubation, toxicity was determined using MTS assay, Cell Titer96 AQ reagent (Promega no. G5430). The background values from the non-cultured medium control were subtracted from the sample values and secreted APP levels and toxicity were expressed as % vehicle control. Of the 144 MES compounds screened, 12 inhibited secreted APP as determined by ELISA. The results are depicted in FIGS. 13A-M.
(§2) Using the experimental procedure outlined above, APP secretion and toxicity studies were performed on several other non-carbamate compounds, and the results are shown in Tables 3 and 4. The compound structures are provided in Table 2 in the application, which are identified by their MES number.

secreted APP = experiment: ELISA for secreted APP in SHSY5Y cells; type: cell-based, human; settings: 16 hours
Procedure: as §1, §2

| Structure (SMILES) | APP Toxicity SH-SY-5Y Cells (MTS assay) (SH-SY-5Y Cells; Dose 2 uM, listed as 9231) [% vehicle control] | APP Toxicity SH-SY-5Y Cells (MTS assay) (SH-SY-5Y Cells; Dose 6 uM, listed as 9231) [% vehicle control] | APP Toxicity SH-SY-5Y Cells (MTS assay) (SH-SY-5Y Cells; Dose 20 uM, listed as 9231) [% vehicle control] | APP Secretion by SH-SY-5Y Cells (secreted APP; Dose 2 uM, listed as 9231) [% vehicle control] | APP Secretion by SH-SY-5Y Cells (secreted APP; Dose 6 uM, listed as 9231) [% vehicle control] | APP Secretion by SH-SY-5Y Cells (secreted APP; Dose 20 uM, listed as 9231) [% vehicle control] | APP Toxicity SH-SY-5Y Cells (MTS assay) (SH-SY-5Y Cells; Dose 2 uM) [% vehicle control] | APP Toxicity SH-SY-5Y Cells (MTS assay) (SH-SY-5Y Cells; Dose 6 uM) [% vehicle control] | APP Toxicity SH-SY-5Y Cells (MTS assay) (SH-SY-5Y Cells; Dose 20 uM) [% vehicle control] | APP Secretion by SH-SY-5Y Cells (secreted APP; Dose 2 uM) [% vehicle control] | APP Secretion by SH-SY-5Y Cells (secreted APP; Dose 6 uM) [% vehicle control] | APP Secretion by SH-SY-5Y Cells (secreted APP; Dose 20 uM) [% vehicle control] | APP Toxicity SH-SY-5Y Cells (MTS assay) (SH-SY-5Y Cells; Dose 0.08 uM) [% vehicle control] | APP Toxicity SH-SY-5Y Cells (MTS assay) (SH-SY-5Y Cells; Dose 0.25 uM) [% vehicle control] | APP Toxicity SH-SY-5Y Cells (MTS assay) (SH-SY-5Y Cells; Dose 0.74 uM) [% vehicle control] | APP Secretion by SH-SY-5Y Cells (secreted APP; Dose 0.08 uM) [% vehicle control] | APP Secretion by SH-SY-5Y Cells (secreted APP; Dose 0.25 uM) [% vehicle control] | APP Secretion by SH-SY-5Y Cells (secreted APP; Dose 0.74 uM) [% vehicle control] |
| --- | --- | --- | --- | --- | --- | --- | --- | --- | --- | --- | --- | --- | --- | --- | --- | --- | --- | --- |
| COc1ccc2c(c1)[C@]1(C)CCN(Cc3ccccc3)C1N2C (stereo partly drawn) [MES 9231] | 95.7 | 90.73 | 85.87 | 104.9 | 133.5 | 154.2 | – | – | – | – | – | – | – | – | – | – | – | – |
| COc1ccc2c(c1)[C@@]1(C)CC[N+](C)(C)C1N2Cc1ccccc1.[I-] (stereo partly drawn) [MES 9234] | – | – | – | – | – | – | 102.55 | 99.75 | 99.3 | 106.4 | 96.5 | 98.8 | – | – | – | – | – | – |
| COc1ccc2c(c1)[C@@](C)(CC[N+](C)(C)C)C(O)N2Cc1ccccc1.[I-] (stereo partly drawn) [MES 9236] | – | – | – | – | – | – | 97.6 | 101 | 100.05 | 105.8 | 103.2 | 101.65 | – | – | – | – | – | – |
| COc1ccc2c(c1)[C@@]1(C)CCN(Cc3ccccc3)C1N2Cc1ccccc1 (stereo partly drawn) [MES 9237] | – | – | – | – | – | – | 96.55 | 98.35 | 99.4 | 149.95 | 158.1 | 173.3 | – | – | – | – | – | – |
| C[C@]12CCN(Cc3ccccc3)C1N(Cc1ccccc1)c1ccc(O)cc12 (stereo partly drawn) [MES 9238] | – | – | – | – | – | – | 41.8 | 40.47 | 31.63 | 48.57 | 39.23 | 23.57 | 101.8 | 103.8 | 106.4 | 117.6 | 107.7 | 109.7 |
| COc1ccc2c(c1)[C@]1(C)CCN(C)C1N2Cc1ccccc1 (stereo partly drawn) [MES 9242] | – | – | – | – | – | – | 94.2 | 89.8 | 80.95 | 116.75 | 116.3 | 116.1 | – | – | – | – | – | – |
| COc1ccc2c(c1)[C@]1(C)CCNC1N2 (stereo partly drawn) [MES 9243] | – | – | – | – | – | – | 99.1 | 98.4 | 99 | 88.95 | 95.25 | 100.55 | – | – | – | – | – | – |
| C=CCO[C@H](c1ccnc2ccccc12)C1CC2CC[N+]1(Cc1c3ccccc3cc3ccccc13)CC2C=C.[Br-] (stereo partly drawn) [MES 9257] | – | – | – | – | – | – | 100.5 | 98.77 | 100 | 111.2 | 98.9 | 99.03 | – | – | – | – | – | – |
